Results published in patent publication US11504371B2, “Quinazolines compound, preparation method therefor and application thereof” (Beijing Normal University, priority 2017, dated 2022).
“And” between values parts separate entries of the source, which are not always exact repeats. Identical values can stand only once. “Also recorded” adds a separate entry of the source. Marks after values point to notes of the source that are not given here.

What was measured:
[1] = test system: human hepatoma cell line (HepG2); assay: MTT assay, tumor cell proliferation inhibition, HepG2; assay type: cell-based; conditions: Homo sapiens, 72 h, read-out: Tumor inhibition rate (IC50)
[2] = test system: human neuroblastoma cell line (SH-SY5Y); assay: MTT assay, tumor cell proliferation inhibition, SH-SY5Y; assay type: cell-based; conditions: Homo sapiens, SH-SY5Y, 72 h, read-out: Tumor inhibition rate (IC50)
[3] = test system: human lung cancer cell line (A549); assay: MTT assay, tumor cell proliferation inhibition, A549; assay type: cell-based
[4] = test system: human breast cancer cell line (MCF-7); assay: MTT assay, tumor cell proliferation inhibition, MCF-7; assay type: cell-based; conditions: Homo sapiens, MCF7; MCF-7, MTT, 72 h; read-out: Tumor inhibition rate (IC50)
[5] = test system: human prostate cancer cell line (DU145); assay: MTT assay, tumor cell proliferation inhibition, DU145; assay type: cell-based; conditions: Homo sapiens, DU-145; DU145, MTT, 72 h; read-out: Tumor inhibition rate (IC50)
A549 cells = assay: Cell cycle experiment (PI staining, flow cytometer); assay type: cell-based, human; conditions: for Cell proportion, G0/G1 / Cell proportion, G2/M / Cell proportion, S: 48 h
Procedure: Experiment procedure: A549 cells in logarithmic growth phase (purchased from the Cancer Hospital of Chinese Academy of Medical Sciences) were seeded into 6-well cell culture plates, adjusted to 5×10^5 cells per well, and cultured in an incubator at 37° C., 5% CO2, and saturated humidity for 24 h. The used medium was discarded. The cells were treated with the target compounds in different concentrations for 48 h, and grouped to an administration group and a control group (non-administered). The cells were digested with 0.25% trypsin to form a single cell suspension, centrifuged at 1500 r/min for 5 min. The supernatant was discarded, and the cells were collected. The cells were washed twice with precooled PBS buffer, centrifuged at 1500 r/min for 5 min, added to 5 mL of precooled 70% ethanol, and placed at 4° C. for at least 24 h. After centrifugation, the supernatant was discarded, and the cells were washed twice with PBS and collected by centrifugation. The cells were suspended in 400 μL PBS, added with 30 μL of RNaseA (purchased from Corning Inc., USA) at the concentrations from 1 mg/mL to 50 μg/mL, and incubated at 37° C. for 30 min. The centrifuge tube was then inserted into an ice bath to stop digestion. After the tube was cooled, 50 μL of PI staining solution (500 μg/mL) (purchased from Corning Inc., USA) was added to a final concentration of 50 μg/mL. The tube was immersed in an ice bath to perform straining in the dark for 30 min-40 min, filtered through a 300 mesh nylon mesh, and tested by flow cytometer (FACS Vantage SE: BD, USA).

cell membrane = assay: Cell membrane permeability test (Hoechst 33342 fluorescence); assay type: cell-based; conditions: Hoechst 33342 fluorescence observation
Text: One of the anilino polyethylene glycol ether cycloquinazoline substituted with a substituted arylmethyl heteroatomic group of formula (I), N-(4-((4-nitrophenyl)methoxy)phenyl)-6,7-(benzo-9-crown-3)-4-quinazolinamine, is studied by cell membrane permeability test. […] As the concentration of the target compound increases, the permeability is improved and the cells undergo apoptosis.

cells A549 = assay: Intracellular reactive oxygen species (fluorescence spectrometer); assay type: cell-based, human; conditions: A549 after treatment
Text: A part of the compound of anilino polyethylene glycol ether cycloquinazoline substituted with a substituted arylmethyl heteroatomic group represented by formula (I) are studied by detecting cell mitochondrial membrane potential and intracellular reactive oxygen species.

A549 cancer cells = assay: Nude mice bearing A549 cancer cells; assay type: in vivo
Procedure: In the present invention, the antitumor activity was evaluated by intraperitoneal injection to nude mice bearing different tumors, for compounds 3 (N-(4-((4-nitrophenyl)methoxy)phenyl)-6,7-(benzo-9-crown-3)-4-quinazolinamine) and 23 (compounds No. are shown in Table 1) (N-(3-((4-trifluoromethylphenyl)methoxy)phenyl)-6,7-(benzo-12-crown-4)-4-quinazolinamine) of formula (I).
Firstly, a tumor-bearing nude mouse model was established. 0.2-1 mL of cell suspension was inoculated subcutaneously into the left lower limb of nude mice, and the drug was administered when the tumor volume reached about 100 mm^3. Then, grouping and administration were performed; the nude mice (5 mice in each group) were randomly divided into several groups, such as ultra-pure water control group (blank), positive drug control group, and different dosage treatment groups. The nude mice in each group were administered continuously for 40 days. The nude mice were weighted every other day during the administration. Tumor volumes were measured and calculated. Then tumor growth curve, tumor inhibition curve (see FIGS. 1 and 3) and weight change curve (see FIGS. 2 and 4) were drawn. […]. Among those, docetaxel suffers from high cumulative neurotoxic toxicity and drug resistance although it has the best effect. Comparing to docetaxel, compound 23 has a much lower toxicity and drug resistance, and thus has a great development prospect. […]

Structure (SMILES): O=[N+]([O-])c1ccc(COc2ccc(Nc3ncnc4cc5c(cc34)OCCOCCO5)cc2)cc1 [Compound 3, N-(4-((4-nitrophenyl)methoxy)phenyl)-6,7-(benzo-9-crown-3)-4-quinazolinamine]
- IC50 [1]: > 100 µM
- IC50 [2]: 55.2 µM
- IC50 ([3]; Homo sapiens, A549, MTT, 72 h, read-out: Tumor inhibition rate (IC50)): 6.62 µM
- inhibitory activity on A549 (in words) ([3]; MTT, summary of Table 1): strong specific inhibitory activity
- IC50 [4]: 39.7 µM
- IC50 [5]: > 100 µM
- cell cycle block (in words) (A549 cells; A549, 0-40 μM): can block A549 in G0/G1 phase
- Cell proportion, G0/G1 (A549 cells; A549, 5 μM): 84.51 ± 0.32 ^a %
- Cell proportion, G2/M (A549 cells; A549, 5 μM): 3.06 ± 0.12 ^ %
- Cell proportion, S (A549 cells; A549, 5 μM): 12.42 ± 0.10%
- Cell proportion, G0/G1 (A549 cells; A549, 10 μM): 85.58 ± 0.44 ^a %
- Cell proportion, G2/M (A549 cells; A549, 10 μM): 3.05 ± 0.19 ^ %
- Cell proportion, S (A549 cells; A549, 10 μM): 11.39 ± 0.64%
- Cell proportion, G0/G1 (A549 cells; A549, 20 μM): 87.23 ± 0.31 ^a %
- Cell proportion, G2/M (A549 cells; A549, 20 μM): 1.41 ± 0.05 ^a %
- Cell proportion, S (A549 cells; A549, 20 μM): 11.68 ± 0.26%
- Cell proportion, G0/G1 (A549 cells; A549, 40 μM): 90.08% and 90.08 ± 0.62 ^a %
- Cell proportion, G2/M (A549 cells; A549, 40 μM): 2.04 ± 0.14 ^a %
- Cell proportion, S (A549 cells; A549, 40 μM): 7.90 ± 0.50 ^a %
- effect on cell membrane permeability (cell membrane): can increase the permeability of the cell membrane
- intracellular reactive oxygen species (ROS) (cells A549): increased intracellular reactive oxygen species (ROS) and apoptosis
- tumor inhibition (A549 cancer cells; 60 mg/Kg, FIG. 1): significant inhibited
- body weight (A549 cancer cells; 60 mg/Kg, FIG. 2): not decreased significantly
- tumor inhibitory effect (tumor volume, FIG. 1) (A549 cancer cells; nude mice bearing A549, intraperitoneal injection): remarkable tumor inhibitory effect; also recorded: high inhibitory effect
- inhibitory activity against A549 compared with gefitinib (A549 cancer cells; same dose 45 mg/Kg, FIG. 1): significantly higher
